Reference: patent publication US11197846B2, “Methods and compositions for treating cannabis use disorder and mitigating cannabinoid withdrawal” (Pleopharma, L.L.C., priority 2020, dated 2021)
“Also recorded” adds a separate entry of the source.

Tests used:
[1] = Plasma pharmacokinetics of nabilone and gabapentin after oral PP-01 once daily for four doses (LC-MS/MS), Example 1 clinical study; conditions: for AUC(0-t) / AUC(0-inf) / Cmax / Tmax / half-life: human, plasma, oral; for AUC(0-inf): AUC0-∞; for Pharmacokinetics compared with historical controls: nabilone and gabapentin given together as PP-01
Excerpt: A total of 14 eligible healthy volunteers with moderate to severe CUD and no contraindications to nabilone or gabapentin were randomized to receive PP-01 (nabilone and gabapentin; Test) or Placebo, in a 1:1 ratio, from a randomization table at the start of Period 1 (Day −1). If participants received PP-01 in Period 1, they received Placebo in Period 2; similarly, if participants received Placebo in Period 1, they received PP-01 in Period 2. Participants received oral doses of PP-01 or Placebo approximately 2 hours before a standardized meal on the morning on the second day of each inpatient admission (Day 1, Periods 1 and 2) and continued to receive once-daily dosing in the morning for a total of four doses per period.
On Day 1, the 0-hour PK blood draw was obtained within 30 minutes prior to the first dose of study drug which was administered by the Investigator (or a staff member as delegated by the Investigator) at approximately 120 minutes prior to the morning standardized breakfast. Venous blood samples of approximately 10 mL each were obtained at the following times following the Day 1 dose to assess nabilone and gabapentin concentrations: 30 and 60 minutes, and 2, 3, and 4 hours (within ±5 minutes of each time point), and 6, 8, 12, and 24 hours (within ±10 minutes of each time point) after study drug administration. The CWS was completed by participants prior to dosing (Baseline) and at 4- and 10-hours post-dose and the sleep questionnaire was completed in the morning prior to dosing. Blood samples to assess serum cortisol were obtained in the evening. Routine safety assessments were performed as scheduled.
On Day 4, the 0-hour PK blood draw was obtained within 30 minutes prior to the dosing of study drug, which was administered by the Investigator (or a staff member as delegated by the Investigator) at approximately 120 minutes prior to the morning standardized breakfast. Venous blood samples of approximately 10 mL each were obtained at the following times following the Day 4 dose to assess nabilone and gabapentin concentrations: 30 and 60 minutes, and 2, 3, and 4 hours (within ±5 minutes of each time point), and 6, 8, 12, and 24 hours (within ±10 minutes of each time point) after study drug administration. The CWS was completed by participants prior to dosing and at 4- and 10-hours post-dose and the sleep questionnaire was completed in the morning prior to dosing; the PGI-S and CGI were completed approximately 4 hours after dosing. Blood samples to assess serum cortisol were obtained in the evening. Routine safety assessments were performed as scheduled.
The following PK assessments were assessed in Periods 1 and 2 on Day 1, Day 2 (trough), Day 4, Day 5 (trough), and Day 8 for nabilone and gabapentin. Baseline concentrations were defined as the 0-minute time point (within 30 minutes of dosing) on Day 1 (Periods 1 and 2). • Area under the plasma concentration-time curve from 0 to the last measurable concentration (AUC0-t) • Area under the plasma concentration-time curve extrapolated to infinity (AUC0-∞) • Peak (maximum) plasma concentration of the drug (Cmax) • Time to peak (maximum) plasma concentration (tmax) • Elimination half-life (t1/2)
Venous blood samples of 10 ml each were collected with K2EDTA anticoagulant for Baseline levels of Δ-9-THC, 11-OHTHC and THC-COOH on Day −1 (Periods 1 and 2). For Periods 1 and 2, levels of nabilone and gabapentin were assessed following the time points listed in Table 2 following the first and fourth dose. Study participants returned on Day 8 (Periods 1 and 2) to have PK samples drawn to help determine the terminal half-life of nabilone. The Baseline (0-hour) time point was collected within 30 minutes prior to dosing.
Baseline concentrations of Δ-9-THC, 11-OHTHC and THC-COOH were determined using a validated liquid chromatographic-tandem mass spectroscopy (LC-MS/MS) assay with a lower limit of quantification (LLOQ) of 0.200 ng/mL.

GABA receptors = conditions: concentrations at or below 1 millimolar; cited from earlier work
[2] = pH values ranging from 1.2 to 7.0; cited from earlier work
[3] = reported; cited from earlier work
[4] = 600 mg, gabapentin 600 mg, Sequence AB, Days 1-2, arithmetic mean
[5] = 600 mg, gabapentin 600 mg, Sequence AB, Days 4-5, arithmetic mean
[6] = 600 mg, gabapentin 600 mg, Sequence BA, Days 1-2, arithmetic mean
[7] = 600 mg, gabapentin 600 mg, Sequence BA, Days 4-5, arithmetic mean
[8] = 6 mg, nabilone 6 mg, Days 1-2, both sequences, arithmetic mean
[9] = 6 mg, nabilone 6 mg, Days 4-5, both sequences, arithmetic mean

NCC1(CC(=O)O)CCCCC1 [Gabapentin, 1-(aminomethyl)cyclohexaneacetic acid]
t1/2 ([1]; gabapentin 600 mg, Sequence BA, Days 1-2, arithmetic mean): 5.3 h
exposure metrics (Cmax, AUC0-24, AUC0-∞) over time ([1]; gabapentin, Days 4 to 5 vs Days 1 to 2): exposure slightly increased at Days 4 to 5 compared to Days 1 to 2
AUC(0-t) ([1]; 600 mg, AUC0-24, gabapentin 600 mg, Sequence AB, Days 1-2, arithmetic mean): 65700 ng·h/mL
AUC(0-t) ([1]; 600 mg, AUC0-24, gabapentin 600 mg, Sequence AB, Days 4-5, arithmetic mean): 70500 ng·h/mL
AUC(0-t) ([1]; 600 mg, AUC0-24, gabapentin 600 mg, Sequence BA, Days 1-2, arithmetic mean): 53600 ng·h/mL
AUC(0-t) ([1]; 600 mg, AUC0-24, gabapentin 600 mg, Sequence BA, Days 4-5, arithmetic mean): 58100 ng·h/mL
AUC(0-inf) [1, 4]: 70000 ng·h/mL
AUC(0-inf) [1, 5]: 74900 ng·h/mL
AUC(0-inf) [1, 6]: 57200 ng·h/mL
AUC(0-inf) [1, 7]: 63100 ng·h/mL
Cmax [1, 4]: 6080 ng/mL
Cmax [1, 5]: 7010 ng/mL
Cmax [1, 6]: 5170 ng/mL
Cmax [1, 7]: 5510 ng/mL
Tmax ([1]; 600 mg, Tmax, gabapentin 600 mg, Sequence AB, Days 1-2, arithmetic mean ± SD): 3.7 ± 1.1 h
Tmax ([1]; 600 mg, Tmax, gabapentin 600 mg, Sequence AB, Days 4-5, arithmetic mean ± SD): 3.3 ± 0.8 h
Tmax ([1]; 600 mg, Tmax, gabapentin 600 mg, Sequence BA, Days 1-2, arithmetic mean ± SD): 3.7 ± 0.5 h
Tmax ([1]; 600 mg, Tmax, gabapentin 600 mg, Sequence BA, Days 4-5, arithmetic mean ± SD): 1 ± 1.1 h
half-life ([1]; 600 mg, t1/2, gabapentin 600 mg, Sequence AB, Days 1-2, arithmetic mean): 5.4 h
half-life ([1]; 600 mg, t1/2, gabapentin 600 mg, Sequence AB, Days 4-5, arithmetic mean): 5.5 h
half-life ([1]; 600 mg, t1/2, gabapentin 600 mg, Sequence BA, Days 4-5, arithmetic mean): 6.3 h
AUC(0-t) ([1]; AUC0-24, gabapentin, range across days and sequences): 53600 to 70500 ng·h/mL
Tmax ([1]; mean Tmax, gabapentin, across days and sequences): 3.3 to 4 h
half-life ([1]; mean t1/2, gabapentin, range across treatment (days, sequence)): 5.3 to 6.3 h
Pharmacokinetics compared with historical controls [1]: consistent with historical controls
binding to GABA receptors (GABA receptors): has not been shown to bind to GABA receptors

CCCCCCC(C)(C)c1cc(O)c2c(c1)OC(C)(C)C1CCC(=O)CC21 (racemic) [Nabilone, (±)-trans-3-(1,1-dimethylheptyl)-6,6a,7,8,10,10a-hexahydro-1-hydroxy-6-6-dimethyl-9H-dibenzo[b,d]pyran-9-one]
AUC(0-t) ([1]; 6 mg, AUC0-24, nabilone 6 mg, Days 1-2, both sequences, arithmetic mean): 34.1 ng·h/mL
AUC(0-t) ([1]; 6 mg, AUC0-24, nabilone 6 mg, Days 4-5, both sequences, arithmetic mean): 33.9 ng·h/mL
AUC(0-inf) [1, 8]: 35.8 ng·h/mL
AUC(0-inf) [1, 9]: 37.4 ng·h/mL
Cmax [1, 8]: 8.51 ng/mL
Cmax [1, 9]: 8.59 ng/mL
Tmax ([1]; 6 mg, Tmax, nabilone 6 mg, Days 1-2, both sequences, PK population, arithmetic mean ± SD): 2.5 ± 1.5 h
Tmax ([1]; 6 mg, Tmax, nabilone 6 mg, Days 4-5, both sequences, arithmetic mean ± SD): 2.3 ± 0.9 h
half-life ([1]; 6 mg, t1/2, nabilone 6 mg, Days 1-2, both sequences, arithmetic mean ± SD): 6.4 ± 1.7 h
half-life ([1]; 6 mg, t1/2, nabilone 6 mg, Days 4-5, both sequences, arithmetic mean ± SD): 9.9 ± 2.5 h
Tmax ([1]; mean time to maximal concentration (Tmax), nabilone): ~2.5 h
Pharmacokinetics compared with historical controls [1]: consistent with historical controls
accumulation over the period studied ([1]; nabilone, Days 1 to 2 vs Days 4 to 5): no accumulation occurred; also recorded: minimal accumulation
solubility in aqueous media [2]: less than 0.5 mg/L

CCCCCc1cc(O)c2c(c1)OC(C)(C)[C@@H]1CCC(CO)=C[C@@H]21 [11-OH-delta-9-THC, 11-hydroxy-delta-9-tetrahydrocannabinol]
agonist potency relative to delta-9-THC [3]: more potent agonist than delta-9-THC
